From patent publication US8962616B2, “Heterocyclic substituted hexahydropyrano[3,4-d][1,3]thiazin-2-amine compounds” (Pfizer Inc., priority 2012, dated 2015)

Experiments:
BACE2 enzyme = BACE2 enzyme (Homo sapiens (Human), UniProt Q9Y5Z0); test: BACE2 Cell-free Assay (fluorescence polarization, synthetic substrate); format: biochemical; conditions: single determination
Protocol: This assay measures the inhibition of the BACE2 enzyme as it cleaves a non-native peptide. A synthetic substrate that can be cleaved by BACE2 having N-terminal biotin and made fluorescent by the covalent attachment of Oregon Green at the Cys residue is used to assay BACE2 activity in the presence or absence of the inhibitory compounds. The substrate is Biotin-[…]-C(Oregon green)-KK-OH. The BACE2 enzyme is available from Enzo Life Sciences (Cat # BML-SE550). Compounds are incubated in a ½ log dose response curve from a top concentration of 100 μM with BACE2 enzyme and the biotinylated fluorescent peptide in 384-well black plates (Thermo Scientific #4318). BACE2 is at a final concentration of 2.5 nM with a final concentration of peptide substrate of 150 nM in a reaction volume of 30 μL assay buffer (100 mM Sodium Acetate, pH 4.5 (brought to pH with acetic acid), and 0.001% Tween-20). Plates are covered and incubated for 3 hours at 37° C. The reaction is stopped with the addition of 30 μL of 1.5 μM Streptavidin (Pierce, #21125). After a 10 minute incubation at room temperature, plates are read on a PerkinElmer Envision for fluorescent polarization (Ex485 nm/Em530 nm). The activity of the beta-secretase enzyme is detected by changes in the fluorescence polarization that occur when the substrate is cleaved by the enzyme.

[1] = system: H4 human neuroglioma cells over-expressing the wild-type human APP695; test: sAPPβ Whole-Cell Assay (in vitro sAPPb assay, ELISA); format: cell-based; conditions: 18 hours, geometric mean of 2-7 determinations (values marked b: single determination)
Protocol: Whole Cell-Free Assay (In Vitro sAPPb Assay):
H4 human neuroglioma cells over-expressing the wild-type human APP695 are treated for 18 hours with compound in a final concentration 1% DMSO. sAPPβ levels are measured using TMB-ELISA with capture APP N-terminal antibody (Affinity BioReagents, OMA1-03132), wild-type sAPPβ specific reporter p192 (Elan), and tertiary anti rabbit-HRP (GE Healthcare).

BACE1 enzyme = BACE1 enzyme (Homo sapiens (Human), UniProt P56817); test: BACE1 Cell-Free Assay (fluorescence polarization, synthetic APP substrate); format: biochemical; conditions: geometric mean of 2-7 determinations (values marked b: single determination)
Source text: This assay measures the inhibition of the beta-secretase enzyme as it cleaves a non-native peptide.
A synthetic APP substrate that can be cleaved by beta-secretase having N-terminal biotin and made fluorescent by the covalent attachment of Oregon Green at the Cys residue is used to assay beta-secretase activity in the presence or absence of the inhibitory compounds. […] The BACE1 enzyme is affinity purified material from conditioned media of CHO-K1 cells that have been transfected with a soluble BACE construct (BACE1deltaTM96His). Compounds are incubated in a ½ log dose response curve from a top concentration of 100 μM with BACE1 enzyme and the biotinylated fluorescent peptide in 384-well black plates (Thermo Scientific #4318). BACE1 is at a final concentration of 0.1 nM with a final concentration of peptide substrate of 150 nM in a reaction volume of 30 μL assay buffer (100 mM sodium acetate, pH 4.5 (brought to pH with acetic acid), and 0.001% Tween-20). Plates are covered and incubated for 3 hours at 37° C. The reaction is stopped with the addition of 30 μL of 1.5 μM Streptavidin (Pierce, #21125). After a 10 minute incubation at room temperature, plates are read on a PerkinElmer Envision for fluorescent polarization (Ex485 nm/Em530 nm). The activity of the beta-secretase enzyme is detected by changes in the fluorescence polarization that occur when the substrate is cleaved by the enzyme.

Sequence of BACE1 enzyme (P56817 46-457): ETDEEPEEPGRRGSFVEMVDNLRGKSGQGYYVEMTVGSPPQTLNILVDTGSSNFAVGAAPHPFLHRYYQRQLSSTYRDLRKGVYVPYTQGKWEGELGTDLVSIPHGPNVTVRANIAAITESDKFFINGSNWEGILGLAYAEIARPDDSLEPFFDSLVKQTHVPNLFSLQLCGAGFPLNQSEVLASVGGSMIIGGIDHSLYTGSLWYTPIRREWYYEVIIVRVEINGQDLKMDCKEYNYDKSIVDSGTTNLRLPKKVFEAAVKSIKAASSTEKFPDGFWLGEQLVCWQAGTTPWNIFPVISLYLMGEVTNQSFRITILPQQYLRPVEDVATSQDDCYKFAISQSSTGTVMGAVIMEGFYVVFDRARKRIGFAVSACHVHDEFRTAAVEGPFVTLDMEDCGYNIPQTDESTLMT
Sequence of BACE2 enzyme (Q9Y5Z0 63-518): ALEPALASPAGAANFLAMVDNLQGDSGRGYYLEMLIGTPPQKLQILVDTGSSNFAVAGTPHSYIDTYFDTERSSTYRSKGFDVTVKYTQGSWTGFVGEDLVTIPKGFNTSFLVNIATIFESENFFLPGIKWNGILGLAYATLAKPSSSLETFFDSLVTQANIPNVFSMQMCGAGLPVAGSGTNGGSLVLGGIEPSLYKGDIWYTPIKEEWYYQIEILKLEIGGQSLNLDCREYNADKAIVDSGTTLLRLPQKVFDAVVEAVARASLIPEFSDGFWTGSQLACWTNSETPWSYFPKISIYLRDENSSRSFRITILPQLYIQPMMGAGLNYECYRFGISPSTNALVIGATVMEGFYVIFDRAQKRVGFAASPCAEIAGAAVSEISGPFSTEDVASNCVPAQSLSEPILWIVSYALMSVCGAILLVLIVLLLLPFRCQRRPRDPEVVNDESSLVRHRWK

Row | IC50 ([1]; Homo sapiens) [nM] | Molecule | IC50 (BACE2 enzyme) [nM] | IC50 [1] [nM] | IC50 (BACE1 enzyme) [nM]
1 | – | Cc1coc([C@H]2C[C@H]3CSC(N)=N[C@@]3(c3ccc(F)cc3F)CO2)n1 [Example 4, (4aR,6R,8aS)-8a-(2,4-Difluorophenyl)-6-(4-methyl-1,3-oxazol-2-yl)-4,4-a,5,6,8,8a-hexahydropyrano[3,4-][1,3]thiazin-2-amine] | 273 | 4 | 84
2 | – | NC1=N[C@@]2(c3ccc(F)cc3F)CO[C@@H](c3ncco3)C[C@H]2CS1 [Example 1, (4aR,6R,8aS)-8a-(2,4-Difluorophenyl)-6-(1,3-oxazol-2-yl)-4,4-a,5,6,8,8a-hexahydropyrano[3,4-][1,3]thiazin-2-amine] | 619 | 32 | 511
3 | – | (4aR,6R,8aS)-8a-(2,4-Difluorophenyl)-6-(3-methyl-1,2,4-oxadiazol-5-yl)-4,4-a,5,6,8,8a-hexahydropyrano[3,4-][1,3]thiazin-2-amine, trifluoroacetate salt [Example 13] | 208 | 34 | 439
4 | – | NC1=N[C@@]2(c3ccc(F)cc3F)CO[C@@H](c3nnco3)C[C@H]2CS1 [Example 14, (4aR,6R,8aS)-8a-(2,4-Difluorophenyl)-6-(1,3,4-oxadiazol-2-yl)-4,4-a,5,6,8,8a-hexahydropyrano[3,4-][1,3]thiazin-2-amine] | – | 196 | 2210
5 | 14 | NC1=N[C@@]2(c3ccc(F)cc3F)CO[C@@H](c3nc(C(F)(F)F)co3)C[C@H]2CS1 [Example 20, (4aR,6R,8aS)-8a-(2,4-difluorophenyl)-6-[4-(trifluoromethyl)-1,3-oxazol-2-yl]-4,4a,5,6,8,8a-hexahydropyrano[3,4-d][1,3]thiazin-2-amine] | 629 | – | 467
6 | 28 | NC1=N[C@@]2(c3ccc(F)cc3F)CO[C@@H](c3ccncn3)C[C@H]2CS1 [Example 18, (4aR,6R,8aS)-8a-(2,4-difluorophenyl)-6-(pyrimidin-4-yl)-4,4a,5,6,8,8a-hexahydropyrano[3,4-d][1,3]thiazin-2-amine] | 695 | – | 390
7 | 44 | NC1=N[C@@]2(c3ccc(F)cc3F)CO[C@@H](c3ncccn3)C[C@H]2CS1 [Example 21, (4aR,6R,8aS)-8a-(2,4-difluorophenyl)-6-(pyrimidin-2-yl)-4,4a,5,6,8,8a-hexahydropyrano[3,4-d][1,3]thiazin-2-amine] | 3090 | – | 983
8 | – | Cn1cc([C@H]2C[C@H]3CSC(N)=N[C@@]3(c3ccc(F)cc3F)CO2)cn1 [Example 7, (4aR,6R,8aS)-8a-(2,4-Difluorophenyl)-6-(1-methyl-1H-pyrazol-4-yl)-4,4-a,5,6,8,8a-hexahydropyrano[3,4-][1,3]thiazin-2-amine] | 185 | 5 | –
9 | – | Cc1ccnc([C@H]2C[C@H]3CSC(N)=N[C@@]3(c3ccc(F)cc3F)CO2)n1 [Example 12, (4aR,6R,8aS)-8a-(2,4-Difluorophenyl)-6-(4-methylpyrimidin-2-yl)-4,4-a,5,6,8,8a-hexahydropyrano[3,4-][1,3]thiazin-2-amine] | – | 50 | 1470
10 | 10 | NC1=N[C@@]2(c3ccc(F)cc3F)CO[C@@H](c3ncc(F)cn3)C[C@H]2CS1 [Example 23, (4aR,6R,8aS)-8a-(2,4-difluorophenyl)-6-(5-fluoropyrimidin-2-yl)-4,4a,5,6,8,8a-hexahydropyrano[3,4-d][1,3]thiazin-2-amine] | – | – | 161
11 | – | Cn1ccc([C@H]2C[C@H]3CSC(N)=N[C@@]3(c3ccc(F)cc3F)CO2)n1 [Example 2, (4aR,6R,8aS)-8a-(2,4-Difluorophenyl)-6-(1-methyl-1H-pyrazol-3-yl)-4,4-a,5,6,8,8a-hexahydropyrano[3,4-][1,3]thiazin-2-amine] | 4740 | 17 | 183
12 | – | NC1=N[C@@]2(c3ccc(F)cc3F)CO[C@@H](c3ccn(C4CC4)n3)C[C@H]2CS1 [Example 19, (4aR,6R,8aS)-6-(1-cyclopropyl-1H-pyrazol-3-yl)-8a-(2,4-difluorophenyl)-4,4a,5,6,8,8a-hexahydropyrano[3,4-d][1,3]thiazin-2-amine] | – | – | 444
13 | – | Cc1cnc([C@H]2C[C@H]3CSC(N)=N[C@@]3(c3ccc(F)cc3F)CO2)o1 [Example 5, (4aR,6R,8aS)-8a-(2,4-Difluorophenyl)-6-(5-methyl-1,3-oxazol-2-yl)-4,4-a,5,6,8,8a-hexahydropyrano[3,4-d][1,3]thiazin-2-amine] | 1150 | 23 | 473
14 | – | (4aR,6R,8aS)-8a-(2,4-Difluorophenyl)-6-(5-methyl-1,3,4-oxadiazol-2-yl)-4,4-a,5,6,8,8a-hexahydropyrano[3,4-d][1,3]thiazin-2-amine [Example 17] | 5560 | 10 | 301
15 | – | Cn1nccc1[C@H]1C[C@H]2CSC(N)=N[C@@]2(c2ccc(F)cc2F)CO1 [Example 3, (4aR,6R,8aS)-8a-(2,4-Difluorophenyl)-6-(1-methyl-1H-pyrazol-5-yl)-4,4-a,5,6,8,8a-hexahydropyrano[3,4-d][1,3]thiazin-2-amine] | – | 636 | 7780
16 | – | Cc1nc([C@H]2C[C@H]3CSC(N)=N[C@@]3(c3ccc(F)cc3F)CO2)oc1C [Example 15, (4aR,6R,8aS)-8a-(2,4-Difluorophenyl)-6-(4,5-dimethyl-1,3-oxazol-2-yl)-4,4-a,5,6,8,8a-hexahydropyrano[3,4-d][1,3]thiazin-2-amine] | 2820 | 7 | 112
17 | – | Cc1nccc([C@H]2C[C@H]3CSC(N)=N[C@@]3(c3ccc(F)cc3F)CO2)n1 [Example 9, (4aR,6R,8aS)-8a-(2,4-Difluorophenyl)-6-(2-methylpyrimidin-4-yl)-4,4-a,5,6,8,8a-hexahydropyrano[3,4-][1,3]thiazin-2-amine] | > 100000 | 28 | 583
18 | 6 | Cc1coc([C@H]2C[C@H]3[C@@H](C)SC(N)=N[C@@]3(c3ccc(F)cc3F)CO2)n1 [Example 22, (4R,4aR,6R,8aS)-8a-(2,4-difluorophenyl)-4-methyl-6-(4-methyl-1,3-oxazol-2-yl)-4,4a,5,6,8,8a-hexahydropyrano[3,4-d][1,3]thiazin-2-amine] | 1400 | – | –
19 | – | Cc1csc([C@H]2C[C@H]3CSC(N)=N[C@@]3(c3ccc(F)cc3F)CO2)n1 [Example 8, (4aR,6R,8aS)-8a-(2,4-Difluorophenyl)-6-(4-methyl-1,3-thiazol-2-yl)-4,4-a,5,6,8,8a-hexahydropyrano[3,4-][1,3]thiazin-2-amine] | 9720 | 27 | 260
20 | – | C[C@H]1SC(N)=N[C@@]2(c3ccc(F)cc3F)CO[C@@H](c3ncco3)C[C@@H]12 [Example 6, (4R,4aR,6R,8aS)-8a-(2,4-Difluorophenyl)-4-methyl-6-(1,3-oxazol-2-yl)-4,4-a,5,6,8,8a-hexahydropyrano[3,4-][1,3]thiazin-2-amine] | 2370 | 32 | 198
21 | – | Cc1cc([C@H]2C[C@H]3CSC(N)=N[C@@]3(c3ccc(F)cc3F)CO2)on1 [Example 16, (4aR,6R,8aS)-8a-(2,4-Difluorophenyl)-6-(3-methyl-1,2-oxazol-5-yl)-4,4-a,5,6,8,8a-hexahydropyrano[3,4-][1,3]thiazin-2-amine] | – | 3 | 59
